Results on three compounds are retold here after ChEMBL document CHEMBL4184337, “Discovery of Orally Bioavailable, Quinoline-Based Aldehyde Dehydrogenase 1A1 (ALDH1A1) Inhibitors with Potent Cellular Activity” (J Med Chem, 2018).

Data set [1] has as its system Mus musculus. As to the kind of experiment: Cmax in CD1 mouse at 2 mg/kg, iv measured at 5 mins by LC-MS/MS method. Format: ADME, organism-based. Set-up: dose 2 mg/kg, route intravenous. To be noted: in vivo.
Data set [2] deals with Mus musculus. The data set can be described thus: Cmax in CD1 mouse at 10 mg/kg, po measured at 5 mins by LC-MS/MS method. Set-up: dose 10 mg/kg, route oral. Format: ADME, organism-based. To be noted: in vivo.
Data set [3] deals with Mus musculus. The data set can be described thus: Oral bioavailability in CD1 mouse at 10 mg/kg by LC-MS/MS method. Format: ADME, organism-based. The note with it: in vivo.
Data set [4] in a line: Permeability of the compound by PAMPA. The format is ADME. A general note: PAMPA measures passive passage across an artificial lipid membrane.
A short description of data set [5]: Apparent permeability across apical to basolateral side in human Caco2 cells. The format is ADME, cell-based. The note with it: caco-2. A general note: Caco-2 cells form a polarised layer with tight junctions and transporters.
Data set [6] is described as follows: Apparent permeability across basolateral to apical side in human Caco2 cells. The format is ADME, cell-based. The note with it: caco-2.
Data set [7] is described as follows: Solubility of compound. The format is physicochemical.
Data set [8] concerns Rattus norvegicus. The data set can be described thus: Cmax in Sprague-Dawley rat at 2 mg/kg, iv measured at 5 mins by LC-MS/MS method. The format is ADME, organism-based. Also noted: dose 2 mg/kg, route intravenous. To be noted: in vivo.
Data set [9] relates to Rattus norvegicus. The data set can be described thus: Cmax in Sprague-Dawley rat at 10 mg/kg, po measured at 5 mins by LC-MS/MS method. Format: ADME, organism-based. Also noted: dose 10 mg/kg, route oral. To be noted: in vivo.
Data set [10] is described as follows: AUC (0 to infinity) in Sprague-Dawley rat at 2 mg/kg, iv by LC-MS/MS method. The format is ADME, organism-based. Also noted: dose 2 mg/kg, time infinity, route intravenous. The note with it: in vivo.
The nature of data set [11]: AUC (0 to infinity) in Sprague-Dawley rat at 10 mg/kg, po by LC-MS/MS method. Format: ADME, organism-based. Also noted: dose 10 mg/kg, route oral, time infinity. The note with it: in vivo.
Data set [12] can be described thus: Volume of distribution at steady state in Sprague-Dawley rat at 2 mg/kg, iv by LC-MS/MS method. The format is ADME, organism-based. To be noted: in vivo, read-out: Vdss.
Data set [13] concerns Rattus norvegicus. The data set can be described thus: Oral bioavailability in Sprague-Dawley rat at 10 mg/kg by LC-MS/MS method. The format is ADME, organism-based. The note with it: in vivo.

`CS(=O)(=O)N1CCN(C(=O)c2cnc3ccc(F)cc3c2N2CCC(C#N)(c3ccccc3)CC2)CC1`: the Cmax (usually the highest concentration seen after dosing) in data set [1] amounted to 2350 ng/mL; in data set [2] it was 1234 ng/mL. In [3], this compound gave an F of 44%. The compound further yielded a permeability in data set [4] of 725 ×10⁻⁶ cm/s. The values for the Papp in [5] and in data set [6] were 11.4 ×10⁻⁶ cm/s and 17.2 ×10⁻⁶ cm/s, respectively.
On to `COc1ccc(S(=O)(=O)c2cnc3ccc(OC)cc3c2N2CCC3(CC2)OCCO3)cc1`, for which the solubility (as a rule, how much of the substance goes into solution per volume) in data set [7] is < 1 µg/mL.
Take `CS(=O)(=O)N1CCN(C(=O)c2cnc3ccc(F)cc3c2-c2ccc(C3(C#N)CC3)cc2)CC1`: the highest concentration (Cmax) in data set [1] turned out to be 1997 ng/mL; in data set [2], 1530 ng/mL; in data set [8] it was 2587 ng/mL; in [9], 1980 ng/mL. The AUC(0-inf) (commonly total exposure, with the tail of the curve extrapolated) in [10] worked out at 3160 ng·h/mL; in data set [11], 7540 ng·h/mL. In addition, in data set [12], the Vd stood at 0.7 L/kg. Besides, the F was 76% in [3] and 48% in [13]. The same compound had a permeability in data set [4] of 388 ×10⁻⁶ cm/s. In addition, the Papp – broadly, the rate of passage across a membrane or cell layer, normalised by area and donor concentration – in data set [5] worked out at 5.76 ×10⁻⁶ cm/s; in data set [6], 22.4 ×10⁻⁶ cm/s.
